Measurements from PubChem BioAssay AID1902 (Broad Institute, 2009).
Calls of active or inactive are those of the source.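 How the source made its calls: active means EC50 no more than a set limit of log units above the highest dose; inactive means the rest.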

target: S. pyogenes SKKanGAS, kanamycin survival, BacTiterGlo, 6 h; assay: S. pyogenes SKKanGAS kanamycin growth inhibitors – SKKanGAS strain, luminescence, dose confirmation, streptokinase promoter inhibitor project, dose response (AID 1902);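 further: lower survival reflects blocked streptokinase promoter driving kanamycin resistance gene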

Going from `COc1ccc(C)cc1N=Nc1ccc(O)c2ncccc12` to `CCN(CC)S(=O)(=O)c1cc(OC)ccc1N=Nc1ccc(O)c2ncccc12`, the EC50 rises from 0.168 µM to 1.92 µM (11-fold). The first is the more potent here.

Going from `CCc1oc2ccccc2c1C(=O)c1cc(Br)c(O)c(Br)c1` to `O=C(N/N=C/c1c(O)ccc2ccccc12)c1ccc(Br)o1`, the EC50 falls from 6.55 µM to 2.3 µM (2.8-fold).

`CCOc1ccc(C(=O)N/N=C(\c2ccccc2)c2ccccn2)cc1` and `CN(C)CCOc1ccc(/C(=C(/CCCl)c2ccccc2)c2ccccc2)cc1` are within 1.5-fold of each other in EC50: 5.71 µM for the first, 4.95 µM for the second.

Compared with `COc1cccc(NP(=O)(Oc2ccc(Cl)cc2)Oc2ccc(Cl)cc2)c1`, `COc1ccc(-c2nnc(NC(=O)c3cc(Cl)ccc3Cl)o2)cc1` is 4-fold lower in EC50: 3.22 µM for the first, 0.814 µM for the second.

Compared with `CO/N=C(/C(=O)N[C@@H]1C(=O)N2C(C(=O)O)=CCS[C@H]12)c1cnc(N)s1`, `N[C@@H](C(=O)N[C@@H]1C(=O)N2C(C(=O)O)=C(Cl)CS[C@H]12)c1ccccc1` is higher in EC50: under 0.06 µM for the first, 0.465 µM for the second. The first is the more potent here.

`CCn1c(O)c(/C=N/N=C/c2ccccc2)c2ccc(C3=NNC(=O)CC3)cc21` and `O=C(/C=C/c1c[nH]c2ccccc12)c1c(O)n(CCc2ccccc2)c(=O)[nH]c1=O` are within 1.5-fold of each other in EC50: 4.3 µM for the first, 3.11 µM for the second.

`O=C(Nc1cccc(NC(=O)c2ccc([N+](=O)[O-])o2)c1)c1ccco1` and `COc1cccc(C(=O)OCC(=O)Nc2nnc(-c3ccccc3)o2)c1` are within 1.5-fold of each other in EC50: 6.61 µM for the first, 8.68 µM for the second.

First: FC(F)(F)c1cccc(-c2nc3nc(Cl)c(Cl)nc3[nH]2)c1
Second: NC(=O)NC(=O)CSc1nc2cc([N+](=O)[O-])ccc2n1-c1cccc(C(F)(F)F)c1
The EC50 of the first is 26-fold higher: 6.58 µM for the first, 0.256 µM for the second.

Going from `Oc1ccc(Br)cc1/C=N/Nc1nc(N2CCCCC2)nc(N2CCOCC2)n1` to `COc1ccc(C(=O)N/N=C/c2cc(Br)ccc2O)cc1OC`, the EC50 falls from 3.81 µM to 1.28 µM (3-fold).

Compared with `c1ccc(-n2c3ccccc3c3ccccc32)cc1`, `O=c1c2ccccc2[se]n1-c1ccccc1` is 2.9-fold lower in EC50: 4.4 µM for the first, 1.52 µM for the second. The second is the more potent here.

Compared with `C=CCNC(=S)N/N=C(\C)c1ccccn1`, `CC/C(=N\NC(=S)Nc1cc(C)ccc1C)c1ccc(OC(F)F)cc1` is 1.8-fold higher in EC50: 1.76 µM for the first, 3.13 µM for the second. The first is the more potent here.

First: CCOC(=O)c1c(NC(=S)NCCc2ccccc2)sc2c1CC(C(C)C)OC2 (stereo unspecified)
Second: CCOC(=O)c1cnc(-n2nc(C)cc2C)nc1NCc1ccccc1
The EC50 of the first is 6.9-fold lower: 0.602 µM for the first, 4.14 µM for the second. The first is the more potent here.

First: Clc1cccc(Cl)c1C1Nc2cccc3cccc(c23)N1
Second: Cc1ccc(-c2cc(-c3ccccc3Cl)[nH]n2)c(O)c1
The EC50 of the first is 4-fold higher: 8.81 µM for the first, 2.19 µM for the second. The second is the more potent here.

Compared with `CC(C)(C)c1ccc(C(=O)Nc2nnc(C3=COCCO3)o2)cc1`, `CC(C)(C)c1ccc(-c2noc(-c3ccc4c(c3)CCO4)n2)cc1` is 18-fold higher in EC50: 0.446 µM for the first, 7.95 µM for the second. The first is the more potent here.

`O=C(COC(=O)Cc1cn2ccsc2n1)Nc1nc2ccccc2s1` and `Cc1cc(NC(=O)c2ccc(C)s2)n(-c2nc3ccccc3[nH]2)n1` are within 1.5-fold of each other in EC50: 2.51 µM for the first, 3.44 µM for the second.

Compared with `Cc1c(N/N=C(\C#N)C(=O)c2ccc(Cl)cc2)c(=O)n(-c2ccccc2)n1C`, `Cc1cc(Nc2ccccc2)nn1C(=O)c1ccc(Br)cc1` is 41-fold higher in EC50: 0.36 µM for the first, 14.6 µM for the second. The first is the more potent here.

First: Clc1ccccc1C(c1ccccc1)(c1ccccc1)n1ccnc1
Second: Cc1cccc(C)c1OC(=O)C(c1ccccc1)c1ccccc1
The EC50 of the first is 2-fold higher: 6.21 µM for the first, 3.17 µM for the second. The second is the more potent here.

Going from `[O-][n+]1cccc2c(Br)cc(Br)c(O)c21` to `COc1cc(Br)cc(/C=N/NC(=O)Cc2ccc(C(F)(F)F)cc2[N+](=O)[O-])c1O`, the EC50 rises from 0.55 µM to 1.1 µM (2-fold).

First: O=C(/C=C1\NC2(CCCC2)Cc2ccccc21)C(=O)N/N=C/c1ccccc1O
Second: Cc1onc(-c2ccccc2)c1C(=O)NNC(=S)NC(=O)/C=C/c1cccs1
The EC50 of the first is 2.7-fold higher: 2.27 µM for the first, 0.839 µM for the second. The second is the more potent here.

`COc1ccc2c(c1)c(CC(=O)Nc1cccc(S(N)(=O)=O)c1)c(C)n2C(=O)c1ccc(Cl)cc1` and `CCOC(=O)c1nn(-c2cccc(OC)c2)c2nc(Nc3ccccc3)cc(=O)n12` are within 1.5-fold of each other in EC50: 3.28 µM for the first, 4.15 µM for the second.

Compared with `O=C(NC(=S)N1CCN(c2ccc(F)cc2)CC1)C12CC3CC(CC(C3)C1)C2`, `COc1c(N2CCNC(C)C2)c(F)cc2c(=O)c(C(=O)O)cn(C3CC3)c12` (stereo unspecified) is 17-fold lower in EC50: 11.1 µM for the first, 0.668 µM for the second.

`CCCCCCC(=O)N/N=C/c1c(O)n(CCCC)c(=S)[nH]c1=O` and `CCCCCCCCCCC[N+](C)(C)CC/C=C1/c2ccccc2Sc2ccc(Cl)cc21` are within 1.5-fold of each other in EC50: 2.12 µM for the first, 2.4 µM for the second.

First: Cc1cccc2sc(NNC(=O)c3ccc(S(=O)(=O)N4CCCC(C)C4)cc3)nc12 (stereo unspecified)
Second: O=C(O)c1ccc(S(=O)(=O)/N=C2\C=C(Nc3ccccc3F)C(=O)c3ccccc32)cc1
The EC50 of the first is 10-fold lower: 0.31 µM for the first, 3.1 µM for the second.

First: CC12CCC(C/C1=N\N=C1\NC(=O)/C(=C\c3ccc(Cl)cc3)S1)C2(C)C (stereo unspecified)
Second: COc1cc(/C=C/C(=O)OC2CC3CCC2(C)C3(C)C)ccc1O (stereo unspecified)
The EC50 of the first is 6.3-fold lower: 1.13 µM for the first, 7.08 µM for the second.

First: C[n+]1c(-c2ccccc2)c2cc(N)ccc2c2ccc(N)cc21
Second: Nc1ccc(-c2nc3nc(N)nc(N)c3nc2-c2ccc(N)cc2)cc1
The EC50 of the first is 2.4-fold lower: 1.54 µM for the first, 3.77 µM for the second.

`CCOC(=O)c1sc(Nc2nc3ccc(OC)cc3s2)cc1C` and `CCOC(=O)Cc1c(C)nc2c(-c3cccc(Br)c3)c[nH]n2c1=O` are within 1.5-fold of each other in EC50: 2.95 µM for the first, 3.53 µM for the second.

Going from `Cn1c(=O)[nH]c(=O)c2c1nc(N1CCC(Cc3ccccc3)CC1)n2Cc1ccccc1` to `Cn1c(=O)c2c(nc(SCc3ccccc3)n2Cc2ccc(Cl)cc2)n(C)c1=O`, the EC50 falls from 3.91 µM to 2.3 µM (1.7-fold). The second is the more potent here.

`C=C(C)COc1ccc(-c2[nH]ncc2Oc2cccc(OC)c2)c(O)c1` and `COc1ccc(-c2n[nH]c(C)c2-c2ccc(Cl)cc2)c(O)c1` are within 1.5-fold of each other in EC50: 5.93 µM for the first, 6.52 µM for the second.

`CC(C)C(=O)NC(c1ccco1)c1ccc2cccnc2c1O` (stereo unspecified) and `CC(C)COc1ccc(-c2nn(-c3ccccc3)cc2/C=C2/SC(=S)N(CC(=O)O)C2=O)cc1` are within 1.5-fold of each other in EC50: 2.44 µM for the first, 2.18 µM for the second.

Compared with `O=C(O)c1cc(-c2ccc(-c3c(-c4ccc5c(c4)OCO5)noc3-c3ccsc3)cc2)nc2ccccc12`, `Nc1nonc1-c1nc2ccccc2n1CC(=O)N/N=C\c1ccc(-c2ccc(Cl)cc2)o1` is 1.7-fold lower in EC50: 1.84 µM for the first, 1.07 µM for the second.

First: O=[N+]([O-])c1ccc(-c2cnc(SC(c3ccccc3)c3ccccc3)[nH]2)cc1
Second: COc1ccc(N=C2S/C(=C\c3ccc(OC(C)C(=O)O)c(OC)c3)C(=O)N2CCc2c[nH]c3ccccc23)cc1 (stereo unspecified)
The EC50 of the first is 6.7-fold higher: 11 µM for the first, 1.63 µM for the second. The second is the more potent here.

Going from `Cc1cc(C)c(OCC(=O)Nc2ccccc2N2CCCCC2)c(C)c1` to `Cc1cc(C)cc(NC(=S)NCCSc2ccc(Cl)cc2)c1`, the EC50 rises from 4.38 µM to 13.5 µM (3.1-fold). The first is the more potent here.

`CCOc1ccc(-c2nc3n(c(=O)c2C#N)CCCS3)cc1` and `NS(=O)(=O)c1ccc(-c2ccc(/C=C3\SC(=S)N(C4CCS(=O)(=O)C4)C3=O)o2)cc1` (stereo unspecified) are within 1.5-fold of each other in EC50: 7.33 µM for the first, 4.95 µM for the second.

`N/C(=N\N=C/c1ccc(Br)cc1)N/N=C\c1ccc(Br)cc1` and `CC(/C=C/c1ccc(N(C)C)cc1)=N\N=C1\NC(=O)CC(C(=O)Nc2ccccc2)S1` (stereo unspecified) are within 1.5-fold of each other in EC50: 3.8 µM for the first, 3.16 µM for the second.

In the case of `C[C@H]1[C@H](C)CC[C@]2(C)CC[C@]3(C)C(=CC[C@@H]4[C@@]5(C)CC[C@@H](O)[C@](C)(C(=O)O)[C@@H]5CC[C@]43C)[C@H]12`, the EC50 is reported as 0.997 µM.

In the case of `CCOc1ccc(NC(=S)NNC(=S)Nc2cccc(C(F)(F)F)c2)cc1`, the EC50 is reported as > 15 µM (inactive).
For `CC(C)[C@H](NC(=O)N1CC(=O)Nc2ccccc21)C(=O)N[C@@H](Cc1ccccc1)C(=O)O`, the EC50 was > 15 µM (inactive).
For `CCOC(=O)c1c(-c2ccc(C)cc2)csc1NC(=O)CCN1CCOCC1`, the EC50 was > 15 µM (inactive).
`O=C(/C=C/c1ccccc1)NCCc1ccccc1` was tested, and the EC50 was > 15 µM (inactive).
In the case of `Cc1nn(CC(=O)Nc2c(F)c(F)cc(F)c2F)c(=O)c2cccn12`, the EC50 is reported as > 15 µM (inactive).
In the case of `C/C(=N\NC(=O)CSc1nc(C)[nH]c1[N+](=O)[O-])c1ccc(F)cc1`, the EC50 is reported as > 15 µM (inactive).
In the case of `O=C(Nc1cccc(NC(=O)c2cccnc2)c1)c1ccccc1`, the EC50 is reported as > 15 µM (inactive).
